Active and inactive are the calls of the source. No cut-off for these calls is given here.
Assays:
[1] = Cytotoxicity against Sprague-Dawley rat primary cerebellar granule neurons assessed as reduction in cell viability measured after 48 hrs by MTT assay; format: tissue-based, Cerebellar granule neurone; details: read-out: LC50
[2] = test system: Cerebellar granule neurone; assay: (§1) Neuroprotective activity against H2O2-induced neuronal death in Sprague-Dawley rat primary cerebellar granule neurons assessed as increase in cell viability at 0.5 to 300 uM preincubated for 24 hrs followed by H2O2 addition and measured after 24 hrs by MTT assay; format: functional, tissue-based; details: dose 0.5-300 µM, time 48.0 hrs
Acetylcholinesterase [3] = target: T1, Acetylcholinesterase (Homo sapiens, UniProt P22303); assay: Potency index, ratio of physostigmine IC50 to test compound IC50 for human erythrocytes AChE
T1 sequence (P22303 whole entry, the tested form may be a part): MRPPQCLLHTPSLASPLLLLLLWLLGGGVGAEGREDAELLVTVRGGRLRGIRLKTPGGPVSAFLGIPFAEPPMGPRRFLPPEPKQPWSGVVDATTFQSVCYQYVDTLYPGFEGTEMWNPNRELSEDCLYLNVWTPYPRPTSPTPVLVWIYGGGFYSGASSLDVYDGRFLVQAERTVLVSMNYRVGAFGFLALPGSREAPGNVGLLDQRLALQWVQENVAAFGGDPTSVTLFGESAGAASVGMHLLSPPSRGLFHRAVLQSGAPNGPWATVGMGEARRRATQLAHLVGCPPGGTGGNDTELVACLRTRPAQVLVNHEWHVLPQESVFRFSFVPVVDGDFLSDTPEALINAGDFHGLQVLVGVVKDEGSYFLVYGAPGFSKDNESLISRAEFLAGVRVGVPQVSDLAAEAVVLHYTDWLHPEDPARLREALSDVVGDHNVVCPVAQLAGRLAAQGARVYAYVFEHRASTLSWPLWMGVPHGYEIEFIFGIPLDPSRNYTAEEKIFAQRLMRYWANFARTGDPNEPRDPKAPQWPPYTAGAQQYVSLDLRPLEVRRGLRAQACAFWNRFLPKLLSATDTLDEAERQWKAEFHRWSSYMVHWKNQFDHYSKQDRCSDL

[4] = test system: Cerebellar granule neurone; assay: as §1, with “reduction” for “increase”, “neurite fragmentation” for “cell viability”, “Hoechst 33258 staining based confocal immunofluorescence microscopic analysis” for “MTT assay”; format: functional, tissue-based; details: dose 0.5-300 µM, time 48.0 hrs
[5] = (§2) Neuroprotective activity against H2O2-induced neuronal death in Sprague-Dawley rat primary cerebellar granule neurons assessed as increase in cell viability preincubated for 24 hrs followed by H2O2 addition and measured after 24 hrs by MTT assay; format: functional, Cerebellar granule neurone; details: time 48 hrs
[6] = Cytotoxicity against […] cells assessed as reduction in cell viability measured after 24 hrs by neutral red staining based spectrophotometric method; details: read-out: LC50
Acetylcholinesterase [7] = target: T1, Acetylcholinesterase; assay: Inhibition of human erythrocytes AChE using acetylthiocholine iodide as substrate measured after 30 mins by Ellman's method
[8] = Neuroprotective activity against H2O2-induced neuronal death in Sprague-Dawley rat primary cerebellar granule neurons assessed as increase in cell viability preincubated for 24 hrs followed by H2O2 addition and measured after 24 hrs by MTT assay relative to control; format: functional, Cerebellar granule neurone; details: time 48 hrs
[9] = Neuroprotective activity against H2O2-induced cell death in […] cells at 0.5 uM preincubated for 24 hrs followed by H2O2 addition and measured after 24 hrs by neutral red staining based spectrophotometric method relative to control; format: functional; details: time 48 hrs
[10] = test system: Cerebellar granule neurone; assay: as §1, with “reduction” for “increase”, “nuclear condensation” for “cell viability”, “Hoechst 33258 staining based confocal immunofluorescence microscopic analysis” for “MTT assay”; format: functional, tissue-based; details: dose 0.5-300 µM, time 48.0 hrs
[11] = test system: Cerebellar granule neurone; assay: Neuroprotective activity against H2O2-induced neuronal death in Sprague-Dawley rat primary cerebellar granule neurons assessed as increase in cell viability at 0.5 to 10 uM preincubated for 24 hrs followed by H2O2 addition and measured after 24 hrs by MTT assay; format: functional, tissue-based; details: dose 0.5-10 µM, time 48.0 hrs
[12] = test system: Cerebellar granule neurone; assay: as §2; format: functional; details: time 48.0 hrs

Structure (SMILES) | CC50 at 48 h [1] [µM] | Activity [2] | Ratio IC50 (Acetylcholinesterase [3]) | Activity [4] | EC [5] [µM] | CC50 at 24 h [6] [µM] | IC50 (Acetylcholinesterase [7]) [µM] | %max [8] [%] | Activity [9] [%] | Activity [10] | Activity [11] | Activity [12]
O=C1C[C@@H](c2ccccc2)Oc2cc(O)cc(O)c21 [PINOCEMBRIN] | 247 | inactive |  |  |  |  |  |  |  |  |  | 
CC(C)=CCc1c(O)cc(O)c2c1O[C@H](c1ccccc1)CC2=O [GLABRANIN] | 44.5 |  | 12 | Active | 10 | 27.3 | 0.0064 | 20.34 | 31.32 | Active | inactive | 
C=CC(C)(C)c1cc([C@@H]2CC(=O)c3c(O)cc(O)c(CC=C(C)C)c3O2)c(O)cc1O | 12.5 |  |  | Active | 5 | 13 | 29 | 16.37 | 51.76 | Active | inactive | 
C=CC(C)(C)c1cc([C@@H]2CC(=O)c3c(O)cc(O)c(CC=C(C)C)c3O2)c(OC)cc1O | > 300 |  |  |  | 200 |  |  | 22.3 |  |  |  | Dose-dependent effect
CC(C)=CCc1c(O)cc2c(c1O)C(=O)C[C@@H](c1ccc(O)c(O)c1CC=C(C)C)O2 | > 300 | inactive |  |  |  |  |  |  |  |  |  | 
C=CC(C)(C)c1cc([C@@H]2CC(=O)c3c(cc(O)c(CC=C(C)C)c3O)O2)c(OC)cc1O | 40.7 | inactive |  |  |  |  |  |  |  |  |  | 
